Measurements as given in US6537545B1, “Use of corneal hardening agents in enzymeorthokeratology” (ISTA Pharmaceuticals, Inc., priority 1998, dated 2003).

What was measured:
Format in all cases: in vivo
[1] = system: Dutch Belted rabbit eyes; test: Histopathology of eyes after corneal scraping (Example 2); conditions: one of the four glyceraldehyde treated eyes; presumably due to scraping
Experimental: The study animals were sacrificed on Study Day 74 with an intravenous injection of pentobarbital (2 mg/kg). Eyes from the study animals were enucleated immediately post-sacrifice and placed in labeled tubes containing approximately 5 mL of half-strength Kamovsky's fixative (2.5% glutaraldehyde, 2.5% paraformaldehyde, 2.5 mM CaCl2, 100 mM Na Cacodylate, pH 7.4) for approximately 1 hour. The eyes were removed and small windows (1×3 mm) were made in the cornea/iris to allow penetration of the fixative to the vitreous. The eyes were then placed in 25 mL of fresh fixative. The fixed eyes were then sent to Consolidated Veterinary Diagnostics, Inc. (West Sacramento, Calif.) where they underwent routine tissue processing, sectioning, and staining with hematoxylin/eosin. They were examined by a Board Certified Veterinary Pathologist.
The eyes which had undergone corneal scraping and a subsequent healing period were sent to Consolidated Veterinary Diagnostics for tissue processing and pathologic interpretation. In toto, 4 eyes from the glyceraldehyde treated group and 2 eyes from the BSS group were evaluated. […] This description would imply a response to injury (presumably the scraping).

[2] = system: Dutch Belted rabbit eyes; test: GLP safety study, slit lamp biomicroscopy and intraocular pressure (Example 3)
Experimental: This study was conducted in compliance with the Good Laboratory Practices requirements of the U.S. Food and Drug Administration. Here, 27 eyes were randomly chosen to form the control group and the remaining 27 eyes formed the experimental group. All of the animals received ophthalmic examinations consisting of slit lamp biomicroscopy (as described in Experiment 2) and intraocular pressure measurements (IOP) as generally practiced in the art, before the experiment began to establish baseline conditions.
Following baseline examinations, all rabbits received 500 IU in 20 μL of hyaluronidase into the corneal stroma bilaterally using the injection method described in Experiment 1. No examinations or treatments were performed on the animals until Study Day 8. On Study Day 8, the animals received slit lamp examinations and IOP measurements.
Treatment with topical eyedrops began immediately after the Day 8 examinations. Each rabbit received 2 drops of test agent four times a day at 05:00, 09:00, 13:00 and 17:00. The 3% glyceraldehyde solution was prepared in 0.9% sodium chloride USP under Good Manufacturing Practices (GMP). The 0.9% sodium chloride for injection was also prepared using GMP. Each rabbit eye in the experimental group received the 3% glyceraldehyde solution while the control eyes received a 0.9% sodium chloride solution. […]

[3] = system: eye of myopic human patient; test: Safety and efficacy of hyaluronidase and topical 3% glyceraldehyde solution, myopia in a human patient (Example 8); conditions: 50 IU hyaluronidase, lenses, 3% glyceraldehyde drops 15 days; monitored 196 days
Experimental: In this study, a single subject was selected to test the safety and efficacy of using hyaluronidase and a glyceraldehyde solution to treat sub-optimal visual acuity. In this study, the subject was first medically evaluated and a baseline was established. A medical history of the subject was taken and a detailed examination of the subject's eyes was also performed. The subject's eyes were tested to determine: refraction, cell count, intraocular pressure (IOP), pachymetry, corneal topography and corneal elasticity. A slit-lamp examination was also performed to establish the health of the eyes. Also, the presence of any general or ocular discomfort of the subject was noted.
Following the establishment of a baseline reading (UVA 20/300), the subject was administered a single intrastromal injection of 50 IU hyaluronidase prior to the orthokeratology treatment. Following 7 days of incubation of the subject's eyes with the injected material, the subject was fitted with corrective contact lenses for overnight wear. The subject wore the corrective lenses day and night for a period of seven (7) days. At this point the subject's visual acuity was 20/15. […] The visual acuity of the subject was then monitored for 196 days to determine the effect of the treatment on the unaided visual acuity of the subject;

Compound: O=CC(O)CO (stereo not shown) [glyceraldehyde]
- pathologic finding in eyes after scraping and healing [1]: superficial scar in the corneal stroma and disruption of Bowman's membrane
- overall deleterious effects in rabbits ([2]; 3% glyceraldehyde solution, 32 days): no significant deleterious effects
- number of the 14 criteria (slit lamp findings, IOP) with statistically significant differences between control and glyceraldehyde treated groups ([2]; 27 rabbits, 500 IU hyaluronidase bilaterally, 3% glyceraldehyde 2 drops four times a day, 32 days vs 0.9% sodium chloride, any timepoint): None
- duration of correction of unaided visual acuity [3]: more than six months
